Earlier results on one compound are cited in patent US20090062244A1, “PHARMACEUTICAL COMPOSITION” (priority 2007, published 2009).

Structures are written as SMILES.

The conditions of the data set: room temperature.

In the case of `O=C(OOC(=O)c1ccccc1)c1ccccc1` [benzoyl peroxide], the “Solubility in 95% alcohol compared with absolute alcohol” value was “several times lower”.
